Legend:
thrombin [1] = target: T1, thrombin (Homo sapiens, UniProt P00734); experiment: fluorometric enzyme inhibition assay, thrombin (Z-Gly-Gly-Arg-AMC); assay type: biochemical; details: quotient Ki thrombin / Ki TMPRSS2, from cited Ki values (ref 29)
T1 construct: purchased Bio-techne
Procedure: (§1) The inhibitory activity of the synthesized compounds towards the respective main- and off-target proteases was measured via fluorometric and colorimetric assays. Thus, fluorogenic AMC- or colorimetric pNA-based substrates with a peptide sequence suitable for the tested protease were utilized (see Supplementary Figure S2). At first, the compounds were screened against […] proteases (uPA, TMPRSS2, matriptase, tPA, thrombin, factor Xa) at 20 µM, and a cut-off value of 80% inhibition at this concentration was set, for the differentiation between nonactive (n.a.) and active inhibitors. Due to the reversible inhibition mechanism of the ketobenzothiazole derivates, the IC50 values were determined with Graphpad Prism 9, and afterwards converted to the corresponding Ki values for an adequate comparison between the inhibitory activities of the compounds toward all tested proteases. The Ki values were calculated using the Cheng–Prusoff equation [43].
(§2) Fluorometric inhibition assays
(§3) The inhibitory activities of the compounds against the proteases were determined by enzyme inhibition assays with fluorogenic or colorimetry-based substrates. The fluorescence, caused by cleaved AMC from the fluorogenic substrates (uPA, matriptase, TMPRSS2, thrombin), was measured in white flat-bottom 96-well plates from Greiner Bio-One using a Tecan Infinite F200 Pro plate reader. The absorption, caused by cleaved pNA from colorimetric substrates (factor Xa and tPA), was measured in transparent flat-bottom 96-well plates from Greiner Bio-One using a Tecan Spark 10M plate reader. All measurements with the main-target proteases (uPA and TMRPSS2) were performed as triplicates and with the off-target proteases (matriptase, factor Xa, tPA, thrombin) as duplicates. The substrates and the compounds were prepared as stock solutions in DMSO. Each well contained a total volume of 200 µL, consisting of 185 µL buffer, 5 µL inhibitor in DMSO or pure DMSO as negative control, 5 µL substrate in DMSO and 5 µL enzyme solution in buffer. Dilution series were prepared for the determination of the inhibition constants. The fluorescence signal and absorbance were measured every 30 s for 10 min at 25 or 37 °C with the corresponding excitation/emission (λex = 380 nm / λem = 460 nm) and absorbance (λabs = 405 nm) wavelengths, depending on the targeted protease. IC50 values for the reversible inhibitors were calculated with Graphpad Prism 9 by fitting the remaining enzymatic activity to the four parameter IC50 equation with Y [%] as the residual enzyme activity , Ymax as the maximum value of the dose response curve at inhibitor concentrations [I] = 0 µM, Ymin as the minimum value at high inhibitor concentrations and s as the hill coefficient.[1] The fluorescence progress curves and sigmoidal dose-response curve for inhibition of uPa by compound 38 is shown exemplary in Figure S2. […]
(§4) Due to the dependence of the IC50 value on the substrate affinity and concentration, the Ki values were calculated with the Cheng-Prusoff equation, using the final substrate concentration [S] and the Michaelis-Menten constant KM, (2) for appropriate comparison of the inhibitory activities to the other enzymes and inhibitors.[1]
(§5) KM values were determined by fitting to the Michaelis-Menten equation using Graphpad Prism 9 with v [ΔF/min] as the substrate hydrolysis rate, vmax as the maximum slope of the dose-response curve, and the substrate [S] concentration.[1] The different substrates were serially diluted in DMSO. The measurement was done in analogy to the determination of the inhibitory activity, but with 5 µL pure DMSO instead of inhibitor solution. […]
(§6) The following buffers and substrates were used for the respective assays: uPA (50 mM Tris HCl pH = 7.9, 150 mM […]
(§7) TMPRSS2 (25 mM Tris HCl pH = 8.0, 150 mM NaCl, 5 mM CaCl2, 0.001% TX-100, 100 µM Boc-Gln-Ala-Arg-AMC (KM: 68.63 ± 6.64 µM), 25 °C, 3 nM TMPRSS2)[3]; matriptase (50 mM Tris HCl pH = 8.0, 150 mM NaCl, 5 mM CaCl2, […]

matriptase [2] = target: T2, matriptase (Homo sapiens, UniProt Q9Y5Y6); experiment: fluorometric enzyme inhibition assay, matriptase (Boc-Leu-Arg-Arg-AMC); assay type: biochemical; details: quotient Ki matriptase / Ki TMPRSS2, from cited Ki values (ref 29)
T2 construct: catalytic domain of matriptase (uniport: Q9Y5Y6 aa 596–855); hexa-histidine (N); made in house; host or cells: Escherichia coli BL21 Gold (DE3)
T2 sequence (Q9Y5Y6 596-855): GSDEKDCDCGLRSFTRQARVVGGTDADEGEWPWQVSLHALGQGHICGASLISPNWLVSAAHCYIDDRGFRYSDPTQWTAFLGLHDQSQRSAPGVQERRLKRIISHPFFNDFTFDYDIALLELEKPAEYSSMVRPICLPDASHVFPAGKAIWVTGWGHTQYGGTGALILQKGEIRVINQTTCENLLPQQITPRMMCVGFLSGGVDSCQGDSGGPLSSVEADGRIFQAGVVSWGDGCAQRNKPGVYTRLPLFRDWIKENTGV
Procedure: as §1, §2, §3, §4, §5, §6, §7

factor Xa [3] = target: T3, factor Xa (Homo sapiens, UniProt P00742); experiment: colorimetric enzyme inhibition assay, factor Xa (Z-D-Arg-Gly-Arg-pNA); assay type: biochemical; details: quotient Ki factor Xa / Ki TMPRSS2, from cited Ki values (ref 29)
T3 construct: purchased Bio-techne
Procedure: as §1, §2, §3, §4, §5, §6, §7

thrombin [4] = target: T1, thrombin; design: method as in PMID 35804152; details: published inhibitor; cited from earlier work
factor Xa [5] = target: T3, factor Xa; design: method as in PMID 35804152; details: published inhibitor; cited from earlier work
TMPRSS2 = target: T4, TMPRSS2 (Homo sapiens, UniProt O15393); design: method as in PMID 35804152; details: published inhibitor; cited from earlier work
T4 construct: purchased Cusabio

matriptase [6] = target: T2, matriptase; design: method as in PMID 35804152; details: published inhibitor; cited from earlier work

T3 sequence (P00742 235-488 limits assumed): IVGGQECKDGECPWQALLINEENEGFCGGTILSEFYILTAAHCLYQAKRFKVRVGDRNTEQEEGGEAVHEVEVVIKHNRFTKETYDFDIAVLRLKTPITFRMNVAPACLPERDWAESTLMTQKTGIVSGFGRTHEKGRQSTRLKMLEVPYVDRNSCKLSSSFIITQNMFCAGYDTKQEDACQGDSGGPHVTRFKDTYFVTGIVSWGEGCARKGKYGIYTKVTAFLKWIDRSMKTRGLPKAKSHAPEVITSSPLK
T3 sequence (P00742 41-179 partner limits assumed): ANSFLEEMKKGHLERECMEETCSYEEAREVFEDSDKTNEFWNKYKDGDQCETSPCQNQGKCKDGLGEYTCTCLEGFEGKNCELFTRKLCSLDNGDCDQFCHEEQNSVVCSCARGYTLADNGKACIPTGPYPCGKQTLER
T4 sequence (O15393 whole entry): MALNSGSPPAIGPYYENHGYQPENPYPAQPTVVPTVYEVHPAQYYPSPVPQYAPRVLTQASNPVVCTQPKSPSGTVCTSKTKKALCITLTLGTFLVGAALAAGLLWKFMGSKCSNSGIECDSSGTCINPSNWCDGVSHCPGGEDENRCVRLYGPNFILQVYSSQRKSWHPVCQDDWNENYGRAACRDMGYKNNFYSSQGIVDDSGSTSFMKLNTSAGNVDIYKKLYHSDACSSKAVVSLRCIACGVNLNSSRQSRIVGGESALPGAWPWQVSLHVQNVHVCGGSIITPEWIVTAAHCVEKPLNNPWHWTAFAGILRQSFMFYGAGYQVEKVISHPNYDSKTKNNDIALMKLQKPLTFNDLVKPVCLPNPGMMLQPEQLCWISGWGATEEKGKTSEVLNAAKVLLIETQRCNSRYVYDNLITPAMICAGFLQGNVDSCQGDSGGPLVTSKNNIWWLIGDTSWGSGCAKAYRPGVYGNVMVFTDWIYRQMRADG

With `CC(=O)N[C@@H](CC(N)=O)C(=O)N1CCC[C@H]1C(=O)N[C@@H](CCCNC(=N)N)C(=O)c1nc2ccccc2s1` [Ac-L-Asn-L-Pro-L-Arg-kbt] the “Selectivity index [SI] Thrombin” value (thrombin [1]) was 418, the “Selectivity index [SI] Matriptase” value (matriptase [2]) was 2 and the “Selectivity index [SI] Factor Xa” value (factor Xa [3]) was 16. For the same molecule, the Ki (thrombin [4]) was 1.05 µM, the Ki (factor Xa [5]) was 0.0411 µM and the Ki (TMPRSS2) was 0.0025 µM. The Ki (matriptase [6]) was 0.0052 µM.

Source: PMC10855164, “Ligand-Based Design of Selective Peptidomimetic uPA and TMPRSS2 Inhibitors with Arg Bioisosteres” (International Journal of Molecular Sciences, 2024)
